Like-named read-outs stand apart in the source and are kept apart here.
Test system: intradermal layer, skin tissue of the rabbit in vivo
Conditions: dose 100 μl
Protocol: Moreover, an object of the following experimental conditions is to confirm, when an inflammatory substance is administered to the intradermal layer which is skin tissue of the rabbit in vivo, a presence or absence of an inflammatory response (formation of erythema and eschar, and formation of edema) for each elapsed time (after 24 hours, 48 hours, and 72 hours). In addition, the injection of an injection solution with the needled injector was performed at a constant pressurization rate.
16-week-old male Std: JW/CSK rabbit, already shaved and smooth skin-verified, was used.
An aqueous solution of the following inflammatory substance was used as the dosing liquid and the injection solution.
Inflammatory substance: acetic acid, diluted to a predetermined concentration with distilled water, dose 100 μl
Definitions of numerical values representing the experimental results in the tables with respect to each of erythema and eschar formation and edema formation are as follows.
(Erythema and Eschar Formation)
1 Very slight erythema (barely perceptible erythema)
2 Slight erythema (clearly perceptible erythema)
3 Moderate to severe erythema
4 Severe erythema to eschar formations
1 Very slight edema (barely perceptible edema)
2 Slight edema (edema with edges perceptible due to definite raising)
3 Moderate edema (raised approximately 1 mm)
4 Severe edema (raised 1 mm or more and extending beyond the area of exposure)

[1] = acetic acid 0.25%, Comparative example (needled injector), 24 h
[2] = acetic acid 0.25%, Comparative example (needled injector), 48 h
[3] = acetic acid 0.25%, Comparative example (needled injector), 72 h
[4] = acetic acid 0.25%, Injector 1, 24 h
[5] = acetic acid 0.25%, Injector 1, 48 h
[6] = acetic acid 0.25%, Injector 1, 72 h
[7] = acetic acid 0.5%, Comparative example (needled injector), 24 h
[8] = acetic acid 0.5%, Comparative example (needled injector), 48 h
[9] = acetic acid 0.5%, Comparative example (needled injector), 72 h
[10] = acetic acid 0.5%, Injector 1, 24 h
[11] = acetic acid 0.5%, Injector 1, 48 h
[12] = acetic acid 0.5%, Injector 1, 72 h
[13] = acetic acid 1.0%, Comparative example (needled injector), 24 h
[14] = acetic acid 1.0%, Comparative example (needled injector), 48 h
[15] = acetic acid 1.0%, Comparative example (needled injector), 72 h
[16] = acetic acid 1.0%, Injector 1, 24 h
[17] = acetic acid 1.0%, Injector 1, 48 h
[18] = acetic acid 1.0%, Injector 1, 72 h
[19] = acetic acid 1.5%, Comparative example (needled injector), 24 h
[20] = acetic acid 1.5%, Comparative example (needled injector), 48 h
[21] = acetic acid 1.5%, Comparative example (needled injector), 72 h
[22] = acetic acid 1.5%, Injector 1, 24 h
[23] = acetic acid 1.5%, Injector 1, 48 h
[24] = acetic acid 1.5%, Injector 1, 72 h
[25] = acetic acid 2.0%, Comparative example (needled injector), 24 h
[26] = acetic acid 2.0%, Comparative example (needled injector), 48 h
[27] = acetic acid 2.0%, Comparative example (needled injector), 72 h
[28] = acetic acid 2.0%, Injector 1, 24 h
[29] = acetic acid 2.0%, Injector 1, 48 h
[30] = acetic acid 2.0%, Injector 1, 72 h

CC(=O)O [Acetic acid, acetic acid]
Edema 24 h [1]: 0
Erythema etc. 24 h [1]: 1
Edema 48 h [2]: 0
Erythema etc. 48 h [2]: 1
Edema 72 h [3]: 0
Erythema etc. 72 h [3]: 1
Edema 24 h [4]: 0
Erythema etc. 24 h [4]: 1
Edema 48 h [5]: 0
Erythema etc. 48 h [5]: 1
Edema 72 h [6]: 0
Erythema etc. 72 h [6]: 1
Edema 24 h [7]: 0
Erythema etc. 24 h [7]: 1
Edema 48 h [8]: 0
Erythema etc. 48 h [8]: 1
Edema 72 h [9]: 0
Erythema etc. 72 h [9]: 1
Edema 24 h [10]: 0
Erythema etc. 24 h [10]: 1
Edema 48 h [11]: 0
Erythema etc. 48 h [11]: 1
Edema 72 h [12]: 0
Erythema etc. 72 h [12]: 1
Edema 24 h [13]: 1
Erythema etc. 24 h [13]: 1
Edema 48 h [14]: 1
Erythema etc. 48 h [14]: 1
Edema 72 h [15]: 1
Erythema etc. 72 h [15]: 1
Edema 24 h [16]: 0
Erythema etc. 24 h [16]: 1
Edema 48 h [17]: 0
Erythema etc. 48 h [17]: 1
Edema 72 h [18]: 0
Erythema etc. 72 h [18]: 1
Edema 24 h [19]: 2
Erythema etc. 24 h [19]: 1
Edema 48 h [20]: 2
Erythema etc. 48 h [20]: 1
Edema 72 h [21]: 2
Erythema etc. 72 h [21]: 1
Edema 24 h [22]: 0
Erythema etc. 24 h [22]: 1
Edema 48 h [23]: 0
Erythema etc. 48 h [23]: 1
Edema 72 h [24]: 0
Erythema etc. 72 h [24]: 1
Edema 24 h [25]: 3
Erythema etc. 24 h [25]: 1
Edema 48 h [26]: 3
Erythema etc. 48 h [26]: 1
Edema 72 h [27]: 2
Erythema etc. 72 h [27]: 1
Edema 24 h [28]: 1
Erythema etc. 24 h [28]: 1
Edema 48 h [29]: 1
Erythema etc. 48 h [29]: 1
Edema 72 h [30]: 1
Erythema etc. 72 h [30]: 1

Source: US20180304019A1, “ADMINISTRATION APPARATUS” (DAICEL CORPORATION, priority 2015, published 2018)
